Data published in article PMC12567244, “Innovative Amino-Functionalization of Pyrido[2,3-d]pyrimidine Scaffolds for Broad Therapeutic Applications Supported by Computational Analyses” (Pharmaceuticals, 2025).
≈ marks a conversion by molar mass, not a printed value. Where “and” joins values, the source holds several entries; their conditions need not be identical. Equal values may be shown once. Read-outs that look alike come from different tables or passages of the source.

Tests used:
mutant EGFRL858R [1] = target: T1, mutant EGFRL858R (Homo sapiens, UniProt P00533, L858R)
EGFRT790M [2] = target: T2, EGFRT790M (Homo sapiens, UniProt P00533, T790M)
in vitro = settings: human, WI-38 normal lung fibroblast cells
mutant EGFRL858R [3] = target: T1, mutant EGFRL858R; experiment: biochemical
EGFRT790M [4] = target: T2, EGFRT790M; experiment: biochemical
[5] = test system: cervical carcinoma (HeLa); experiment: MTT cytotoxicity assay, HeLa; settings: for SI HeLa: IC50 WI-38 / IC50 HeLa; for IC50: read-out: IC50 HeLa, MTT, mean ± SD of three measurements
breast carcinoma (MCF-7) = experiment: MTT cytotoxicity assay, MCF-7; settings: for SI MCF-7: IC50 WI-38 / IC50 MCF-7; for IC50: read-out: IC50 MCF-7, MTT, mean ± SD of three measurements
liver carcinoma (HepG-2) = experiment: MTT cytotoxicity assay, HepG-2; settings: for SI HepG-2: IC50 WI-38 / IC50 HepG-2; for IC50: read-out: IC50 HepG-2, MTT, mean ± SD of three measurements
EGFRWT = EGFRWT (Homo sapiens, UniProt P00533); experiment: HTRF enzyme inhibitory assay, EGFR WT
HeLa, HepG-2, and MCF-7 = experiment: MTT cytotoxicity, range over the cancer cell panel; settings: read-out: IC50 across HeLa, HepG-2 and MCF-7; range over all examined cancer cell lines
E. coli ATCC25915 = experiment: MIC, two-fold serial dilution, E. coli; format: cell-based; settings: Escherichia coli
S. aureus ATCC25923 [6] = experiment: MIC, two-fold serial dilution, S. aureus; format: cell-based, Staphylococcus aureus; settings: for MIC: Staphylococcus aureus, ATCC25923
E. faecalis ATCC29212 [7] = experiment: MIC, two-fold serial dilution, E. faecalis; format: cell-based, Enterococcus faecalis; settings: for MIC: Enterococcus faecalis, ATCC29212
P. aeruginosa ATCC10145 [8] = experiment: MIC, two-fold serial dilution, P. aeruginosa; format: cell-based; settings: Pseudomonas aeruginosa
E.coli ATCC25915 = experiment: Well diffusion inhibition zone, E. coli; settings: Escherichia coli, ATCC25915, read-out: Inhibition zone E.coli ATCC25915
E. faecalis ATCC29212 [9] = experiment: Well diffusion inhibition zone, E. faecalis; settings: Enterococcus faecalis, ATCC29212, read-out: Inhibition zone E. faecalis ATCC29212
P. aeruginosa ATCC10145 [10] = experiment: Well diffusion inhibition zone, P. aeruginosa; settings: Pseudomonas aeruginosa, ATCC10145, read-out: Inhibition zone P. aeruginosa ATCC10145
S. aureus ATCC25923 [11] = experiment: Well diffusion inhibition zone, S. aureus; settings: Staphylococcus aureus, ATCC25923, read-out: Inhibition zone S. aureus ATCC25923
[12] = potency relative to wild-type EGFR

T2 sequence (P00533 25-1210 T790M): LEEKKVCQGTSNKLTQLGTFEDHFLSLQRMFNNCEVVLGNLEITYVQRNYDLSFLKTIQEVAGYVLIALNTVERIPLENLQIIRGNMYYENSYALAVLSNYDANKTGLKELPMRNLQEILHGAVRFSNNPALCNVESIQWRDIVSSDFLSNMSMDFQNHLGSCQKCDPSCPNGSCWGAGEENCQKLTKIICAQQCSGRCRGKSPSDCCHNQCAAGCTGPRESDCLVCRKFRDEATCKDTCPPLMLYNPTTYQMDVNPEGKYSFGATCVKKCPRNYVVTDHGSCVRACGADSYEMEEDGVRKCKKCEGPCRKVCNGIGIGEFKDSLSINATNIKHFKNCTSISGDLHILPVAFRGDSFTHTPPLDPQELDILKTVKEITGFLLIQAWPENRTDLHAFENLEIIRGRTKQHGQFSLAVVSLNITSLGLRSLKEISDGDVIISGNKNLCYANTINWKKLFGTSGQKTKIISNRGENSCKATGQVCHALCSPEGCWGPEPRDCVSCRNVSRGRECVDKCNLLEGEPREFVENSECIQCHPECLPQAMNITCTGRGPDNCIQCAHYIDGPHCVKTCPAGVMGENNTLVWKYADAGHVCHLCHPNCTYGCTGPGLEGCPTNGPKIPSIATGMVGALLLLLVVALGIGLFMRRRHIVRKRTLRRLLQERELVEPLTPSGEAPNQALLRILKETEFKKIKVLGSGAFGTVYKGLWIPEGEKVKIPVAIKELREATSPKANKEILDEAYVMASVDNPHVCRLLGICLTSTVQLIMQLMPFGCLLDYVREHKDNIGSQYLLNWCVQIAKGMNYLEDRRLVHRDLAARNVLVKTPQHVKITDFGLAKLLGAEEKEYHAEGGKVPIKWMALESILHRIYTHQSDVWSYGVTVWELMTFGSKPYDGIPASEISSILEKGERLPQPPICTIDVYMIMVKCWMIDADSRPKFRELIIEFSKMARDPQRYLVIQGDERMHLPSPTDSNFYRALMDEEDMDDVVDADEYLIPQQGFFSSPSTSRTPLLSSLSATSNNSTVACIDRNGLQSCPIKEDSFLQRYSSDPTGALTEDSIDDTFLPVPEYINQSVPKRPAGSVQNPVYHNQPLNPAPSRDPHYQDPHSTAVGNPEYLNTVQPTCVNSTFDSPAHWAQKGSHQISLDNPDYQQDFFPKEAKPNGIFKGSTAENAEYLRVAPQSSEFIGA
T1 sequence (P00533 25-1210 L858R): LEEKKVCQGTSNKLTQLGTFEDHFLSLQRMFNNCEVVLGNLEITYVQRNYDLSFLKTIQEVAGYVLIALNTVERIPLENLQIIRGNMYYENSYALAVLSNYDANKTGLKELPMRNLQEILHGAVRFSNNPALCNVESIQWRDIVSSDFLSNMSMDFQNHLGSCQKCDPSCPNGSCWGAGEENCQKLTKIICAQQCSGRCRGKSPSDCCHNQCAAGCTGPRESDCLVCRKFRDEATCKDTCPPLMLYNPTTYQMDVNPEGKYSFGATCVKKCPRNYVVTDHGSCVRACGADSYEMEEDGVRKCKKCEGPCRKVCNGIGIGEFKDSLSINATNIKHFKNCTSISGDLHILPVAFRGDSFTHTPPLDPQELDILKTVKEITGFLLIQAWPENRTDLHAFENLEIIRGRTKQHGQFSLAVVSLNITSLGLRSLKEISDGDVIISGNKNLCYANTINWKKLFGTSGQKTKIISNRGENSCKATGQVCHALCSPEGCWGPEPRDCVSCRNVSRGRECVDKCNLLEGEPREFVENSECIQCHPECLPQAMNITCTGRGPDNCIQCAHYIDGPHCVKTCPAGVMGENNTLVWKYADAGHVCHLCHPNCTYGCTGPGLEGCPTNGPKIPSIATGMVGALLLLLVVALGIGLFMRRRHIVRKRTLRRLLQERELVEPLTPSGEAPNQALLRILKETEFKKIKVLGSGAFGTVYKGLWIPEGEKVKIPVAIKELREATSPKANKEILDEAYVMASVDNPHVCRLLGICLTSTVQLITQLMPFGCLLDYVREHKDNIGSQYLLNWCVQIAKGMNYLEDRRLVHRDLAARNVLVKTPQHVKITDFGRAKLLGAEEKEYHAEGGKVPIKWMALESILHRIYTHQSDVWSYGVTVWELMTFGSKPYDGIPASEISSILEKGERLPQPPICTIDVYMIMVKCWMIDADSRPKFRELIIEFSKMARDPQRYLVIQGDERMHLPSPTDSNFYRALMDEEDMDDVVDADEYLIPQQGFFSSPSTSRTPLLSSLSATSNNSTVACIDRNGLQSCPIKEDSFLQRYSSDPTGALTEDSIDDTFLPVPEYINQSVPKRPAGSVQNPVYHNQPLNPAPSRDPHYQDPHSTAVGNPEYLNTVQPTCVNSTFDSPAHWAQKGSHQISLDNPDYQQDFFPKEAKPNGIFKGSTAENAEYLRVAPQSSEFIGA
Sequence of EGFRWT (P00533 25-1210): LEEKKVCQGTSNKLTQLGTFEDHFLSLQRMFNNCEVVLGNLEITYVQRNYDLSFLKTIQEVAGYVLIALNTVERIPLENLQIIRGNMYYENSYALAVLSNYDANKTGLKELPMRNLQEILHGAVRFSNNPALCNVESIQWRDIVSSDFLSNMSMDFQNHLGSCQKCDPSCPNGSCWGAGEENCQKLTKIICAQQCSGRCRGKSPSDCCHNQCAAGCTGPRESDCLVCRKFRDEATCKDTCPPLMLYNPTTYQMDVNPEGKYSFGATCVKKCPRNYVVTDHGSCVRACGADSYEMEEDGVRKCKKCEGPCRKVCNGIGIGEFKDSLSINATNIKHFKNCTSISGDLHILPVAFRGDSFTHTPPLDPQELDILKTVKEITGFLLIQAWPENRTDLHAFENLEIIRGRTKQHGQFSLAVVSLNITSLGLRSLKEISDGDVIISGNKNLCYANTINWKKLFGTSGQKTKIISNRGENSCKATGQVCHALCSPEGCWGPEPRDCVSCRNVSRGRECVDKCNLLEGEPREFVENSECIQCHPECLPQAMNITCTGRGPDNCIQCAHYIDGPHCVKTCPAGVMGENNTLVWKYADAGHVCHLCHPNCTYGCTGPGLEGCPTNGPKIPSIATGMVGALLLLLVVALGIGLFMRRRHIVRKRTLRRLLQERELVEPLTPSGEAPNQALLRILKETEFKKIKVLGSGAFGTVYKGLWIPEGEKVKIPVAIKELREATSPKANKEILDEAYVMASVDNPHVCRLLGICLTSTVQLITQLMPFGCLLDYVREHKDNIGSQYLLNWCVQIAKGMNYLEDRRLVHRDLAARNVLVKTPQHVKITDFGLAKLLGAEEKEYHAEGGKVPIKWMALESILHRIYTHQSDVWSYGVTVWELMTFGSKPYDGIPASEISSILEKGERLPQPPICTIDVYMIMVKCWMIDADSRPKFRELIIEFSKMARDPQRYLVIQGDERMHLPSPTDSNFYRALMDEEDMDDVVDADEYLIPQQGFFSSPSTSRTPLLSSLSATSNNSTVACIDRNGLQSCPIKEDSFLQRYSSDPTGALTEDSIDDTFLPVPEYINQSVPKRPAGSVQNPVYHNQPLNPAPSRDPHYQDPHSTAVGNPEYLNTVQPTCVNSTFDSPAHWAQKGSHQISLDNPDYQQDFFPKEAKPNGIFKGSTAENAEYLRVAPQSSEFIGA

IC50 at 48 h (in vitro) [µM]	MIC (E. coli ATCC25915) [µg/mL]	MIC S. aureus ATCC25923 (S. aureus ATCC25923 [6]) [µg/mL]	MIC (S. aureus ATCC25923 [6]) [µg/mL]	MIC (E. faecalis ATCC29212 [7]) [µg/mL]	MIC (P. aeruginosa ATCC10145 [8]) [µg/mL]	Compound	SI HeLa [5]	IC50 [5] [µM]	SI MCF-7 (breast carcinoma (MCF-7))	IC50 (breast carcinoma (MCF-7)) [µM]	SI HepG-2 (liver carcinoma (HepG-2))	IC50 (liver carcinoma (HepG-2)) [µM]	IC50 (HeLa, HepG-2, and MCF-7) [µM]	zone of inhibition at 100 µg/mL (E.coli ATCC25915) [mm]	zone of inhibition at 100 µg/mL (E. faecalis ATCC29212 [9]) [mm]	zone of inhibition at 100 µg/mL (P. aeruginosa ATCC10145 [10]) [mm]	further results
18.2 ± 1.4	50 (≈ 111 µM)	>100	> 100	100 (≈ 222 µM)	50 (≈ 111 µM)	Cn1c(=O)c2c(-c3ccc(Cl)cc3)c(C3=NN=C4N=CN=C(N)C43)c(N)nc2n(C)c1=O (centres unmarked) [Compound 12, 7-Amino-6-(4-amino-3aH-pyrazolo [3,4-d]pyrimidin-3-yl)-5-(4-chlorophenyl)-1,3-dimethylpyrido[2,3-d]pyrimidine-2,4(1H,3H)-dione]	0.41	44.2 ± 2.6	0.31	58.8 ± 3.3	0.33	54.3 ± 3.2	–	10.4 ± 0.08	2 ± 0.05	10.5	%inh EGFR_T790M (EGFRT790M [2]; conc 0.01): 6.2%; %inh EGFR_T790M (EGFRT790M [2]; conc 0.1): 29.8%; %inh EGFR_T790M (EGFRT790M [2]; conc 1): 52.9%; %inh EGFR_T790M (EGFRT790M [2]; conc 10): 75.1%; %inh EGFR_T790M (EGFRT790M [2]; conc 100): 93.5%
10.7 ± 0.8	50 (≈ 96.2 µM)	>100	> 100	> 100	100 (≈ 192 µM)	Cc1cc(C)n(-c2c[nH]nc2NC(=O)c2c(N)nc3c(c2-c2ccc(Cl)cc2)c(=O)n(C)c(=O)n3C)n1 [Compound 13, 7-Amino-5-(4-chlorophenyl)-N-(3,5-dimethyl-1′H-[1,4′-bipyrazol]-3′-yl)-1,3-dimethyl-2,4-dioxo-1,2,3,4-tetrahydropyrido[2,3-d]pyrimidine-6-carboxamide]	0.37	28.7 ± 1.9	0.29	36.1 ± 2.2	0.32	32.6 ± 2.1	28 to 36	14.5 ± 0.15	–	16.8	MIC E. faecalis ATCC29212 (E. faecalis ATCC29212 [7]): >100 µg/mL
57.6 ± 3.2	50 (≈ 100 µM)	–	100 (≈ 200 µM)	100 (≈ 200 µM)	–	CC1=NN(C(=S)NC(=O)c2c(N)nc3c(c2-c2ccc(Cl)cc2)c(=O)n(C)c(=O)n3C)C(=O)C1 [Compound 16, 7-Amino-5-(4-chlorophenyl)-1,3-dimethyl-N-(3-methyl-5-oxo-4,5-dihydro-1H-pyrazole-1-carbonothioyl)-2,4-dioxo-1,2,3,4-tetrahydropyrido[2,3-d]pyrimidine-6-carboxamide]	1.65	34.8 ± 2.1	1.34	42.9 ± 2.5	0.88	65.1 ± 3.4	35 to 65	18.5 ± 0.15	4 ± 0.6	17.6	zone of inhibition at 100 µg/mL (S. aureus ATCC25923 [11]): 4.5 ± 0.1 mm

Compound	IC50 at 48 h (in vitro) [µM]	MIC (E. coli ATCC25915) [µg/mL]	MIC S. aureus ATCC25923 (S. aureus ATCC25923 [6]) [µg/mL]	MIC (S. aureus ATCC25923 [6]) [µg/mL]	MIC (E. faecalis ATCC29212 [7]) [µg/mL]	MIC (P. aeruginosa ATCC10145 [8]) [µg/mL]	SI HeLa [5]	IC50 [5] [µM]	SI MCF-7 (breast carcinoma (MCF-7))	IC50 (breast carcinoma (MCF-7)) [µM]	SI HepG-2 (liver carcinoma (HepG-2))	IC50 (liver carcinoma (HepG-2)) [µM]	IC50 (HeLa, HepG-2, and MCF-7) [µM]	zone of inhibition at 100 µg/mL (E.coli ATCC25915) [mm]	zone of inhibition at 100 µg/mL (E. faecalis ATCC29212 [9]) [mm]	zone of inhibition at 100 µg/mL (P. aeruginosa ATCC10145 [10]) [mm]	further results
Cn1c(=O)c2c(-c3ccc(Cl)cc3)c(C(=O)NN)c(N)nc2n(C)c1=O [Compound 2, 7-Amino-5-(4-chlorophenyl)-1,3-dimethyl-2,4-dioxo-1,2,3,4-tetrahydropyrido[2,3-d]pyrimidine 6-carbohydrazide]	64.1 ± 3.5	–	–	–	–	–	8.6	7.54 ± 0.7	7.44	8.61 ± 0.6	4.95	12.9 ± 1	7.54 to 12.9	–	–	–	%inh EGFR_L858R (mutant EGFRL858R [1]; conc 0.01): 6.07%; %inh EGFR_L858R (mutant EGFRL858R [1]; conc 0.1): 19%; %inh EGFR_L858R (mutant EGFRL858R [1]; conc 1): 43.5%; %inh EGFR_L858R (mutant EGFRL858R [1]; conc 10): 68.3%; %inh EGFR_L858R (mutant EGFRL858R [1]; conc 100): 90.7%; Fold-Change L858R/WT (mutant EGFRL858R [1]; [12]): 7.5 × and 7.56×; Fold-Change T790M/WT (EGFRT790M [2]; [12]): 4.03×; IC50 (mutant EGFRL858R [3]): 1.6 ± 0.05 µM; IC50 (EGFRT790M [4]): 0.854 ± 0.027 µM; IC50 (EGFRWT): 0.212 ± 0.007 µM; %inh EGFR WT (EGFRWT; conc 0.01): 24.6%; %inh EGFR WT (EGFRWT; conc 0.1): 42.5%; %inh EGFR WT (EGFRWT; conc 1): 67.1%; %inh EGFR WT (EGFRWT; conc 10): 81.4%; %inh EGFR WT (EGFRWT; conc 100): 94.6%
